{"source": "patent US5378690A", "about": "“New renin-inhibitory oligopeptides, their preparation and their use” (Sankyo Company, Limited, priority 1986, dated 1995)"}
{"molecular_target": "T1, human renin (Homo sapiens, UniProt P00797)", "T1 sequence (P00797 67-406)": "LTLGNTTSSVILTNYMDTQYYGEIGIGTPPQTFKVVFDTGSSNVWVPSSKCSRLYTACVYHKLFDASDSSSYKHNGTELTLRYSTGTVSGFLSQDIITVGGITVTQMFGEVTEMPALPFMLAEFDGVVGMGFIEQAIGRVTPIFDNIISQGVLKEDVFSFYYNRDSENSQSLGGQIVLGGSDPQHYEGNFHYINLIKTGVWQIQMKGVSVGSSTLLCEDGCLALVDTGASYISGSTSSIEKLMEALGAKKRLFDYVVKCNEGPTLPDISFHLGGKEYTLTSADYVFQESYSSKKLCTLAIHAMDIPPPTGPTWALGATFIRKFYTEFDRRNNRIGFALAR", "experiment": "Inhibition of renin activity", "format": "biochemical", "conditions": "1×10^-6 M of the test compound, sheep angiotensinogen, pH 7.3, 10 minutes at 37° C., mean of 3 or 4 experiments", "method": "The ability of various compounds of the invention to inhibit the activity of renin was determined according to the following method, which follows essentially the procedure of Kokubu et al. [Hypertension, 5, 191-197 (1983)].\nSpecifically, each test compound was dissolved in 60% v/v aqueous ethanol. Human renin activity in the presence and absence of each compound was measured using sheep angiotensinogen. The total volume of 1 ml of assay mixture contained 0.1 mole/litre phosphate buffer (pH 7.3), human renin (equivalent to 0.5 ng angiotensin I per ml per minute), sheep angiotensinogen (equivalent to 200 ng angiotensin I) 1×10^-6 M of the test compound, 6% v/v ethanol and angiotensinase inhibitors (10 mmole/litre sodium ethylenediaminetetraacetate and 3.4 mmole/litre 8-hydroxyquinoline). The mixture was allowed to react for 10 minutes at 37° C., and then the reaction was stopped by placing the reaction tube in a boiling water bath for 5 minutes. The mixture was then centrifuged and the supernatant (0.05-0.1 ml) was used to assay remaining angiotensin I.\nAn identical experiment was carried out, as a control, except that the test compound was omitted. From the values obtained were calculated the % inhibition of renin activity achieved by each test compound. The results are shown in the following Table 9, in which the compounds of the invention are identified by the numbers of the Examples given hereafter in which are described their preparation. The values given are the mean of 3 or 4 experiments.", "units": {"Inhibitory Activity (%)": "%"}}
{"smiles": "CC1CN(C(=O)C[C@@H](Cc2cccc3ccccc23)C(=O)NC(Cc2cscn2)C(=O)N[C@@H](CC2CCCCC2)[C@@H](O)CC(=O)NCCN2CCOCC2)CC(C)O1", "note": "(mixture of isomers) [Example 8, N-{N-[(2R)-2-(1-Naphthylmethyl)-3-(2,6-dimethylmorpholinocarbocyl)propionyl]-3-(4-thiazolyl)-DL-alanyl}-cyclostatin-(2-morpholinoethyl)amide]", "Inhibitory Activity (%)": 96.5}
{"smiles": "CCCCCCNC(=O)C[C@H](O)[C@H](CC1CCCCC1)NC(=O)[C@H](Cc1cscn1)NC(=O)[C@H](Cc1cccc2ccccc12)NC(=O)CN1CCOCC1", "note": "[Example 110, N-{N-[N-Morpholinoacetyl-3-(1-naphthyl)-L-alanyl]-3-(4-thiazolyl)-L-alanyl}-cyclostatin-hexylamide]", "Inhibitory Activity (%)": 98.3}
{"smiles": "CC(C)CCNC(=O)C[C@H](O)[C@H](CC1CCCCC1)NC(=O)[C@H](Cc1cscn1)NC(=O)[C@H](Cc1cccc2ccccc12)NC(=O)CN(C)Cc1ccccc1", "note": "[Example 111, N-{N-[N-(Benzyl-N-methylaminoacetyl)-3-(1-naphthyl)-L-alanyl]-3-(4-thiazolyl)-L-alanyl}-cyclostatin-isopentylamide]", "Inhibitory Activity (%)": 96.0}
{"smiles": "O=C(C[C@H](O)[C@H](CC1CCCCC1)NC(=O)C(Cc1cscn1)NC(=O)[C@@H](CC(=O)N1CCCCC1)Cc1cccc2ccccc12)NCCN1CCOCC1", "note": "(mixture of isomers) [Example 11, N-{N-[(2R)-2-(1-Naphthylmethyl)-3-(piperidinocarbonyl)propionyl]-3-(4-thiazolyl)-DL-alanyl}-cyclostatin-(2-morpholinoethyl)amide]", "Inhibitory Activity (%)": 96.9}
{"smiles": "CC(C)CCNC(=O)C[C@H](O)[C@H](CC1CCCCC1)NC(=O)[C@H](Cc1cscn1)NC(=O)[C@H](Cc1cccc2ccccc12)NC(=O)CN1CCOCC1", "note": "[Example 108]", "Inhibitory Activity (%)": 98.6}
